Measurements taken from patent US20080227655A1, “Assessment of effect of an agent on a human biological condition using rodent gene expression panels” (priority 2006, published 2008).
Values joined by “and” are separate entries in the source; they are usually repeats but may differ in a detail not shown here. Identical values can stand only once.

Test system: custom murine 40-gene Precision Profile for Rheumatoid Arthritis, whole blood
Test: Collagen Induced Arthritis (CIA) model, whole blood gene expression by QPCR, vehicle or dexamethasone treatment
Assay type: in vivo, male DBA/1 mice
Procedure: Whole blood gene expression changes were evaluated in vehicle control and drug-treated murine subjects across two murine models of arthritis according to the following arthritis models:
KRN Transgenic Mouse (K/B×N): K/B×N serum from transgenic mouse used to induce arthritis in female BALB/c mice (n=54). Collagen Induced Arthritis (CIA): Bovine type II collagen used to induce arthritis in male DBA/1 mice (n=54).
In addition, naïve, untreated animal groups at baseline and terminal day were included to control for potential age-related changes in gene expression over the extended study periods. Animal groups, time-points, and treatment schedules are summarized in Tables 20A and 20B, respectively.
Whole blood samples from animals were collected by retro-orbital bleed at selected time-points in accordance with the arthritis study schemas described in […], and transferred into sample collection tubes containing a 1.5× lysis solution and RPMI. Samples were processed into total RNA and cDNA. […] It was anticipated from these murine models would provide a better understanding of the relevant molecular response of arthritis induction and their potential correlation to the human disease condition.
Normal murine subject reference values (represented as normalized Ct or ΔCt values) were established for male DBA/1 mice (n=6 for the CIA study arm) and female BALB/c mice (n=6 for the KRN study arm). In both arms of the study, gene expression response of normal (naïve, non-immunized and untreated) murine subjects were evaluated in groups of 6 each at day 0 and day 60 for the CIA study arm, and at day 0 and day 21 for the KRN study arm (see Tables 20A and 20B).
Gene expression responses for this arthritis-induced murine model were evaluated for untreated mice at day 24 and vehicle-treated mice at days 33, 42, and 60 to characterize disease progression.

[1] = CIA Day 42 Treated, group Average
[2] = CIA Day 42 Treated, group Average, whole blood
[3] = CIA Day 42 Treated, individual mice
[4] = CIA Day 42 Treated, individual mice, whole blood
[5] = CIA Day 60 Treated, group Average
[6] = CIA Day 60 Treated, group Average, whole blood
[7] = CIA Day 60 Treated, individual mice
[8] = CIA Day 60 Treated, individual mice, whole blood

## C[C@@H]1C[C@H]2[C@@H]3CCC4=CC(=O)C=C[C@]4(C)[C@@]3(F)[C@@H](O)C[C@]2(C)[C@@]1(O)C(=O)CO [Dexamethasone]
[1]
  CD19_M Normalized CT Value (Delta CT), Average: 17.41
  CD32_M Normalized CT Value (Delta CT), Average: 19.18
  CD86_M Normalized CT Value (Delta CT), Average: 22.86
  CSPG2_M Normalized CT Value (Delta CT), Average: 18.40
  F3_M Normalized CT Value (Delta CT), Average: 24.19
  HMOX1—M Normalized CT Value (Delta CT), Average: 17.42
  HSPA1A—M Normalized CT Value (Delta CT), Average: 22.06
  ICAM1—M Normalized CT Value (Delta CT), Average: 19.40
  IFI16_M Normalized CT Value (Delta CT), Average: 18.56
  IL1A_M Normalized CT Value (Delta CT), Average: 24.26
  IL1B_M Normalized CT Value (Delta CT), Average: 14.10
  IL10_M Normalized CT Value (Delta CT), Average: 25.70
[2]
  Normalized CT (Delta CT) IL1RAP_M: 18.00
  Normalized CT (Delta CT) IL1RN—M: 17.54
  Normalized CT (Delta CT) IL6_M: 24.59
  Normalized CT (Delta CT) JUN_M: 20.13
  Normalized CT (Delta CT) MEF2C—M: 19.65
  Normalized CT (Delta CT) NFKB1—M: 17.40
  Normalized CT (Delta CT) PADI4—M: 17.97
  Normalized CT (Delta CT) PLA2G7—M: 14.89
[3]
  ABCA1_M Normalized CT Value (Delta CT): 19.25 and 19.03 and 20.65 and 19.18 and 18.65 and 19.31
  APAF1_M Normalized CT Value (Delta CT): 20.34 and 19.23 and 20.02 and 18.89 and 19.10 and 20.01
  ARG2_M Normalized CT Value (Delta CT): 18.59 and 17.70 and 18.13 and 17.87 and 17.07 and 18.04
  CASP1_M Normalized CT Value (Delta CT): 19.07 and 17.95 and 20.08 and 18.16 and 18.00 and 18.03
  CASP3_M Normalized CT Value (Delta CT): 18.26 and 18.13 and 18.40 and 18.45 and 17.48 and 17.70
  CCR3_M Normalized CT Value (Delta CT): 19.92 and 18.94 and 19.77 and 19.05 and 19.94
  CD8A_M Normalized CT Value (Delta CT): 19.05 and 19.19 and 19.47 (2×) and 19.54 and 21.24
  CD14_M Normalized CT Value (Delta CT): 18.22 and 17.59 and 18.17 and 17.46 and 16.46 and 17.49
  CD19_M Normalized CT Value (Delta CT): 17.83 and 18.59 and 17.22
  CD32_M Normalized CT Value (Delta CT): 19.54 and 18.75 and 20.05 and 19.32 and 18.31 and 19.12
  CD86_M Normalized CT Value (Delta CT): 22.76 and 21.99 and 24.40 and 22.29 and 22.95 and 22.75
  CSPG2_M Normalized CT Value (Delta CT): 17.53 and 18.70 and 18.64 and 18.36 and 19.59 and 17.59
  F3_M Normalized CT Value (Delta CT): 21.92 and 24.08 and 25.50 and 24.56 and 23.94 and 25.11
  HMOX1—M Normalized CT Value (Delta CT): 15.87 and 17.25 and 18.49 and 17.66 and 17.84 and 17.40
  HSPA1A—M Normalized CT Value (Delta CT): 21.34 and 22.12 and 22.63 and 20.82 and 23.83 and 21.63
  ICAM1—M Normalized CT Value (Delta CT): 18.58 and 19.08 and 19.89 and 19.37 and 20.27 and 19.24
  IFI16_M Normalized CT Value (Delta CT): 17.87 and 17.97 and 18.60 and 18.06 and 20.80 and 18.04
  IL1A_M Normalized CT Value (Delta CT): 24.26
  IL1B_M Normalized CT Value (Delta CT): 13.49 and 14.12 and 14.22 and 14.25 and 14.38 and 14.15
  IL10_M Normalized CT Value (Delta CT): 25.44 (2×) and 25.71 and 25.64 and 25.84 and 26.13
[4]
  Normalized CT (Delta CT) IL1RAP_M: 17.46 and 17.94 and 18.31 and 18.38 and 17.99 and 17.91
  Normalized CT (Delta CT) IL1RN—M: 16.89 and 17.57 and 17.94 and 17.76 and 17.56 and 17.53
  Normalized CT (Delta CT) IL6_M: 24.11 and 25.01 and 23.38 and 25.34 and 25.09
  Normalized CT (Delta CT) JUN_M: 19.54 and 19.51 and 20.43 and 19.81 and 21.67 and 19.83
  Normalized CT (Delta CT) MEF2C—M: 19.72 and 19.12 and 19.89 and 19.47 and 20.04 and 19.64
  Normalized CT (Delta CT) NFKB1—M: 17.25 and 16.83 and 17.27 and 16.97 and 18.81 and 17.26
  Normalized CT (Delta CT) PADI4—M: 17.57 and 18.02 and 17.98 (2×) and 18.35 and 17.91
  Normalized CT (Delta CT) PLA2G7—M: 14.60 and 14.83 and 15.02 and 14.96 and 15.09 and 14.82
[5]
  ABCA1_M Normalized CT Value (Delta CT), Average: 18.01
  APAF1_M Normalized CT Value (Delta CT), Average: 18.94
  ARG2_M Normalized CT Value (Delta CT), Average: 17.62
  CASP1_M Normalized CT Value (Delta CT), Average: 18.09
  CASP3_M Normalized CT Value (Delta CT), Average: 17.44
  CCR3_M Normalized CT Value (Delta CT), Average: 20.02
  CD14_M Normalized CT Value (Delta CT), Average: 17.08
  CD32_M Normalized CT Value (Delta CT), Average: 18.46
  CD86_M Normalized CT Value (Delta CT), Average: 22.22
[6]
  Normalized CT (Delta CT) IL1RAP_M: 18.09
  Normalized CT (Delta CT) IL1RN—M: 17.39
  Normalized CT (Delta CT) IL6_M: 24.58
  Normalized CT (Delta CT) JUN_M: 19.44
  Normalized CT (Delta CT) MEF2C—M: 19.42
  Normalized CT (Delta CT) NFKB1—M: 16.65
  Normalized CT (Delta CT) PADI4—M: 18.36
  Normalized CT (Delta CT) PLA2G7—M: 14.66
[7]
  ABCA1_M Normalized CT Value (Delta CT): 18.15 and 17.43 and 18.02 and 18.03 and 18.50 and 17.95
  APAF1_M Normalized CT Value (Delta CT): 18.90 and 18.40 and 19.28 and 18.97 and 19.36 and 18.75
  ARG2_M Normalized CT Value (Delta CT): 17.69 and 17.21 and 17.86 and 17.73 and 18.48 and 16.78
  CASP1_M Normalized CT Value (Delta CT): 17.78 and 17.53 and 18.19 and 18.75 and 18.66 and 17.61
  CASP3_M Normalized CT Value (Delta CT): 17.72 and 17.06 and 17.22 and 17.97 and 17.46 and 17.18
  CCR3_M Normalized CT Value (Delta CT): 20.33 and 18.57 and 20.17 and 20.39 and 21.29 and 19.38
  CD14_M Normalized CT Value (Delta CT): 17.31 and 16.84 (2×) and 17.24 and 17.32 and 16.92
  CD32_M Normalized CT Value (Delta CT): 18.41 and 17.86 and 18.35 and 18.90 and 18.54 and 18.72
  CD86_M Normalized CT Value (Delta CT): 22.26 and 21.38 and 22.48 and 22.41 and 22.40 and 22.37
[8]
  Normalized CT (Delta CT) IL1RAP_M: 18.11 and 18.37 and 18.06 and 18.23 and 18.26 and 17.51
  Normalized CT (Delta CT) IL1RN—M: 17.45 and 17.37 and 17.66 and 17.72 and 17.62 and 16.51
  Normalized CT (Delta CT) IL6_M: 25.14 and 24.12 and 24.79 and 25.54 and 25.20 and 22.67
  Normalized CT (Delta CT) JUN_M: 19.63 and 19.39 and 19.44 (2×) and 19.07 and 19.67
  Normalized CT (Delta CT) MEF2C—M: 19.42 and 19.06 and 19.35 and 19.73 and 19.55 and 19.41
  Normalized CT (Delta CT) NFKB1—M: 16.72 and 16.41 and 16.30 and 16.95 and 16.80 and 16.73
  Normalized CT (Delta CT) PADI4—M: 18.90 and 18.59 and 18.29 and 18.10 and 18.41 and 17.84
  Normalized CT (Delta CT) PLA2G7—M: 14.78 and 14.34 and 14.76 and 14.77 and 14.96 and 14.35
  Normalized CT (Delta CT), column 9, gene sub-head of this block not shown: 24.31
